For one data set, the target named is urease (Canavalia ensiformis, UniProt P07374). The data set is described as follows: biochemical. The following applies: indophenol method, urea substrate 100 mM, absorbance at 630 nm, triplicate.
[1] abbreviates: urease inhibition IC50 ± s.e.m.
Where [2] appears, read: read-out: urease inhibition IC50 ± s.e.m.

“And” between values parts separate entries of the source, which are not always exact repeats. Equal values may be shown once. Read-outs that look alike come from different tables or passages of the source.

Our source for the melting point and IC50 values is article PMC10073911, “N-Arylacetamide derivatives of methyl 1,2-benzothiazine-3-carboxylate as potential drug candidates for urease inhibition” (Royal Society Open Science, 2023).

urease, sequence (P07374 whole entry, looked up): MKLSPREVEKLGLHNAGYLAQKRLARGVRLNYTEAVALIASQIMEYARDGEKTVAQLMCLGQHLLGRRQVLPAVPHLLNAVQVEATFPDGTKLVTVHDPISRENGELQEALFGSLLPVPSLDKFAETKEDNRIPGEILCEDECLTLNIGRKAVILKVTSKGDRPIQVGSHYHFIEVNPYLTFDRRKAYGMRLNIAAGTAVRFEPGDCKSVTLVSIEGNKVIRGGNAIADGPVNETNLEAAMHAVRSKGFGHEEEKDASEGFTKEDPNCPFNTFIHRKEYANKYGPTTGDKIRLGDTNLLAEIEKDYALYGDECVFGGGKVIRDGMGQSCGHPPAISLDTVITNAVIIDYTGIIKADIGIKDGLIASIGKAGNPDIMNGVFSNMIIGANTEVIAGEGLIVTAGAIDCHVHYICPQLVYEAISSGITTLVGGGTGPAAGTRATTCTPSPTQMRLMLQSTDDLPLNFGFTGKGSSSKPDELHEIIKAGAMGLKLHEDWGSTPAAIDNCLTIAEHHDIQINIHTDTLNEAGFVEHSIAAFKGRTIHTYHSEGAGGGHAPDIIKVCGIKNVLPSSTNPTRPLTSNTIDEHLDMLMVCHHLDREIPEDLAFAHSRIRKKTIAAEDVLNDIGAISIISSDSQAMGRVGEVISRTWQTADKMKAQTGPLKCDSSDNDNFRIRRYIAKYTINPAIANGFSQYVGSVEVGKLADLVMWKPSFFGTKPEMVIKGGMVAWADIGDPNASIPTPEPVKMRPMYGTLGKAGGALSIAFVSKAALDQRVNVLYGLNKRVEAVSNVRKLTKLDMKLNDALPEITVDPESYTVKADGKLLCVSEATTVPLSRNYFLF
Experimental for urease: Compounds 5(a-n) were investigated to evaluate the inhibitory activity employing the slightly modified indophenol method [58, 59]. Assay mixture containing 1 unit of urease enzyme solution and 60 µl of buffer comprising urea substrate (100 mM) were pre-incubated with synthesized compounds (10 µl of 1 mM solution) at room temperature for 10 min in 96-well plates. Inhibitory activity of all test compounds was noted by measuring NH3 production using the above-mentioned protocol. Momentarily, phenolic reagent (50 µl) and alkali reagent (70 µl) were added in each well. After half an hour, absorbance at 630 nm was determined for all, using a Bio-Tek ELx 800, Instruments, Inc. USA Elisa-plate reader. Triplicate data for all the experiments was obtained and percentage inhibitory activities were calculated using the following formula: Inhibition percentage =100−( absorbance of experimental compound/absorbance of test control)×100.

For orientation: melting point means the temperature, or range, at which the solid turns liquid. The term IC50 denotes the concentration at which inhibition is half-maximal. Regarding `COC(=O)C1=C(O)c2ccccc2S(=O)(=O)N1CC(=O)Nc1ccccc1` [5a, Methyl 4-hydroxy-2-(2-oxo-2-(phenylamino)ethyl)-2H-benzo[e][1,2]thiazine-3-carboxylate 1,1-dioxide], the melting point fell in the range of 188 to 190 °C. Further, on urease (setting [1]), the IC50 was 10.1 ± 0.9 µM. As to `COC(=O)C1=C(O)c2ccccc2S(=O)(=O)N1CC(=O)Nc1ccccc1OC` [5b, Methyl 4-hydroxy-2-(2-((2-methoxyphenyl)amino)-2-oxoethyl)-2H-benzo[e][1,2]thiazine-3-carboxylate 1,1-dioxide], the 50% inhibitory concentration (IC50) at urease (setting [1]) stood at 14.9 ± 1.5 µM. For `COC(=O)C1=C(O)c2ccccc2S(=O)(=O)N1CC(=O)Nc1ccccc1C` [5c, Methyl 4-hydroxy-2-(2-oxo-2-(o-tolylamino)ethyl)-2H-benzo[e][1,2]thiazine-3-carboxylate 1,1-dioxide], the melting point was 172 to 174 °C. This compound also showed an IC50 on urease (setting [1]) of 17.2 ± 1.1 µM. On the same counts, the results for `COC(=O)C1=C(O)c2ccccc2S(=O)(=O)N1CC(=O)Nc1ccccc1C(=O)OC` [5d, Methyl 4-hydroxy-2-(2-((2-(methoxycarbonyl)phenyl)amino)-2-oxoethyl)-2H-benzo[e][1,2]thiazine-3-carboxylate 1,1-dioxide] are 178 to 180 °C and 14.1 ± 0.12 µM. In the case of `COC(=O)C1=C(O)c2ccccc2S(=O)(=O)N1CC(=O)Nc1cccc(OC)c1` [5e, Methyl 4-hydroxy-2-(2-((3-methoxyphenyl)amino)-2-oxoethyl)-2H-benzo[e][1, 2]thiazine-3-carboxylate 1,1-dioxide], the IC50 on urease (setting [2]) came out at 18.2 ± 1.69 µM. In turn, `COC(=O)C1=C(O)c2ccccc2S(=O)(=O)N1CC(=O)Nc1cccc(C)c1` [5f, Methyl 4-hydroxy-2-(2-oxo-2-(m-tolylamino)ethyl)-2H-benzo[e][1,2]thiazine-3-carboxylate 1,1-dioxide] had a melting point of 192 to 194 °C. The compound further registered an IC50 on urease (setting [1]) of 15.5 ± 1.35 µM. On the same counts, the results for `COC(=O)C1=C(O)c2ccccc2S(=O)(=O)N1CC(=O)Nc1ccc(OC)cc1` [5g, Methyl 4-hydroxy-2-(2-((4-methoxyphenyl)amino)-2-oxoethyl)-2H-benzo[e][1,2]thiazine-3-carboxylate 1,1-dioxide] are 176 to 178 °C and 20.4 ± 1.81 µM. `COC(=O)C1=C(O)c2ccccc2S(=O)(=O)N1CC(=O)Nc1ccc(C)cc1` [5h, Methyl 4-hydroxy-2-(2-oxo-2-(p-tolylamino)ethyl)-2H-benzo[e][1,2]thiazine-3-carboxylate 1,1-dioxide]: at urease (setting [1]), 16.4 ± 1.4 µM corresponded to half-maximal inhibition (IC50). `COC(=O)C1=C(O)c2ccccc2S(=O)(=O)N1CC(=O)Nc1ccc(Cl)cc1` [5i, Methyl 2-(2-((4-chlorophenyl)amino)-2-oxoethyl)-4-hydroxy-2H-benzo[e][1,2]thiazine-3-carboxylate 1,1-dioxide] displayed an IC50 at urease (setting [1]) of 20.7 ± 0.25 µM. The compound `COC(=O)C1=C(O)c2ccccc2S(=O)(=O)N1CC(=O)Nc1ccc([N+](=O)[O-])cc1` [5j, Methyl 4-hydroxy-2-(2-((4-nitrophenyl)amino)-2-oxoethyl)-2H-benzo[e][1,2]thiazine-3-carboxylate 1,1-dioxide] gave a melting point of 192 to 194 °C. Also, the half-maximal inhibitory concentration (IC50) on urease (setting [1]) was 17.1 ± 1.45 µM. On urease (setting [1]), `CCOC(=O)c1ccc(NC(=O)CN2C(C(=O)OC)=C(O)c3ccccc3S2(=O)=O)cc1` [5k, Methyl 2-(2-((4-(ethoxycarbonyl)phenyl)amino)-2-oxoethyl)-4-hydroxy-2H-benzo[e][1,2]thiazine-3-carboxylate 1,1-dioxide] displayed a half-inhibitory concentration (IC50) of 9.8 ± 0.023 µM. Still for that read-out and setting: then `COC(=O)C1=C(O)c2ccccc2S(=O)(=O)N1CC(=O)Nc1ccc(NC(C)=O)cc1` [5l, Methyl 2-(2-((4-acetamidophenyl)amino)-2-oxoethyl)-4-hydroxy-2H-benzo[e][1,2]thiazine-3-carboxylate 1,1-dioxide], with 12.6 ± 0.1 µM.

Compound `COC(=O)C1=C(O)c2ccccc2S(=O)(=O)N1CC(=O)Nc1cccc(Cl)c1Cl` [5m, Methyl 2-(2-((2,3-dichlorophenyl)amino)-2-oxoethyl)-4-hydroxy-2H-benzo[e][1,2]thiazine-3-carboxylate 1,1-dioxide] had a melting point of 154 to 156 °C. Also, the IC50 against urease (setting [1]) is 14 µM and 14.1 µM. Consider `COC(=O)C1=C(O)c2ccccc2S(=O)(=O)N1CC(=O)Nc1ccc(Cl)cc1Cl` [5n, Methyl 2-(2-((2,4-dichlorophenyl)amino)-2-oxoethyl)-4-hydroxy-2H-benzo[e][1,2]thiazine-3-carboxylate 1,1-dioxide], for which the IC50 against urease (setting [1]) is 13 µM and 13.1 µM. Consider `NC(N)=S` [thiourea, reference compound], for which the IC50 at urease (setting [2]) is 22.3 ± 0.031 µM.
